Results on five compounds are retold here after patent US8497370B2, “Processes for preparing amine salts of sildenafil-analogues and use thereof” (Kaohsiung Medical University, priority 2010, dated 2013).

Holding throughout (format): in vivo
One test has as its system C57BL/6J mice. Kind of test: The lipid-lowering effect in C57BL/6J mice (high-fat diet). Particulars: HFD C57BL/6J mice, after 21 days, six mice per group. Here is the method:
1. The Lipid-Lowering Effect in C57BL/6J Mice
8-week C57BL/6J mice are divided into standard diet (STD) group and the high-fat diet (HFD) group. In the HFD group, the Simvastatin (5 mg/kg), Sildenafil-Atorvastatinic acid complex salt, Sildenafil-Rosuvastatinic acid complex salt, Sildenafil-Simvastatinic acid complex salt (2.5 mg/kg) are separately administered orally. After 21 days, the amounts (mg/d1) of the triglyceride (TG), the total cholesterol (Tot.-C), the high density lipoprotein cholesterol (HDL-C), and the low density lipoprotein cholesterol (LDL-C) of six mice for each group are measured as shown in Tables 2.

The subject of test [1] is male Wistar rats treated with MCT. Description: Monocrotaline (MCT)-induced pulmonary arterial hypertension in rats, pulmonary artery blood pressure. Particulars: for PABP: MCT (60 mg, intracutaneously)-treated male Wistar rats, 2.5 mg/kg/day p.o., MCT alone 25 ± 2.3, control 11 ± 1.4; for effect on pulmonary artery blood pressure (PABP), in words: MCT-treated male Wistar rats, 2.5 mg/kg orally every day. From the text:
2. The Monocrotaline (MCT)-Treated Rats Show the Decreased Pulmonary Aterial Hypertension
Pulmonary aterial hypertension in MCT-treated rats is caused on day 21 after the intracutaneously injection.

For a further test, the system named is TGF-β. Kind of test: Bleomycin (BM)-induced lung fibrosis in mice, TGF-β expression in tracheal irrigation solution by EIA. As to conditions: 60 mg/kg BM inhalation, *P < 0.05 vs control group. As to the method:
3. Sildenafil-Simvastatinic Acid Complex Salts Inhibit the Lung Fibrosis in Mice Induced by Bleomycin (BM) Mediated Via TGF-β Expression in Lung The increased amount of the synthetic collagen and the generation of the macrophage in alveolus may facilitate the formulation of transforming growth factor beta (TGF-β), and the expression of TGF-β is looked as a biomarker of the lung fibrosis. The simvastatin (5 mg/kg) and Sildenafil-Simvastatinic acid complex salts (2.5 mg/kg) are orally administered to the mice for inhibiting the lung fibrosis induced by TGF-β expression in tracheal irrigation solution that resulted from 60 mg/kg BM inhalation (Table 4). The state of the TGF-β expression in the irrigation solution is measured by the enzyme immunoassay (EIA).

In the test on C57BL/6J mice (2.5 mg/kg orally), “Sildenafil-Rosuvastatinic acid complex salt” had an HDL-C of 103.4 ± 1.5 mg/d1, an LDL-C of 15.2 ± 1.7 mg/d1, a TG of 83.2 ± 5.3 mg/d1 and a Tot.-C of 131.7 ± 1.6 mg/d1.

In the case of Sildenafil-γ-Polyglutamate complex, in test [1], the PABP amounted to 11 ± 0.8 mmHg and the “effect on pulmonary artery blood pressure (PABP), in words” value is “decreasing the pulmonary artery blood pressure”.

For the compound `CCC(C)(C)C(=O)O[C@H]1C[C@@H](C)C=C2C=C[C@H](C)[C@H](CC[C@@H]3C[C@@H](O)CC(=O)O3)[C@H]21` [Simvastatin, reference compound], the “Changed amount of the lung TGF-β” value in the test on TGF-β (5 mg/kg orally) is given as 40 ± 4.3%*. In the test on C57BL/6J mice (5 mg/kg orally), this compound yielded an HDL-C of 103.18 ± 2.5 mg/d1, an LDL-C of 15.3 ± 1.3 mg/d1, a TG of 82.67 ± 6.3 mg/d1 and a Tot.-C of 133.67 ± 4.3 mg/d1.

In the test with C57BL/6J mice (2.5 mg/kg orally), “Sildenafil-Atorvastatinic acid complex salt” returned an HDL-C of 97.6 ± 2.8 mg/d1, an LDL-C of 16.8 ± 1.8 mg/d1, a TG of 79.2 ± 4.6 mg/d1 and a Tot.-C of 130.7 ± 1.7 mg/d1.

On to “Sildenafil-Simvastatinic acid complex salt”, for which the “Changed amount of the lung TGF-β” value with TGF-β (2.5 mg/kg orally) amounted to 43 ± 1.8%*. Besides, in test [1], the PABP stood at 12 ± 1.5 mmHg and the “effect on pulmonary artery blood pressure (PABP), in words” value is “decreasing the pulmonary artery blood pressure”. In the test on C57BL/6J mice (2.5 mg/kg orally), this compound showed an HDL-C of 102.4 ± 2.3 mg/d1, an LDL-C of 17.3 ± 1.4 mg/d1, a TG of 81.2 ± 4.4 mg/d1 and a Tot.-C of 129.7 ± 1.4 mg/d1.
